The values that follow come from patent publication US20250353859A1, “COMPOUNDS AS CCR6 INHIBITORS” (Hoffmann-La Roche Inc., priority 2023, published 2025).

One experiment deals with Human CD4+ T cells. In words: CD4+ T cells chemotaxis assay towards CCL20. The format is cell-based. Conditions: CD4+ T cell, 3 h. An excerpt:
Human CD4+ T cells were isolated from buffy coats of healthy donors using aCD4+ T Cell Isolation Kit(Miltenyi Biotec 130-096-533). Isolated T cells were stimulated overnight with anti-CD3 and anti-CD28 antibodies (Biolegend 300314/302934) in growth medium (RPMI1640, 10% heat-inactivated FBS, 1× pen/strep (Gibco 15140)). For the chemotaxis assay, Corning Transwell plates were used with a pore size of 5 m (Corning 3388). T cells were counted and diluted to 6*10^6 cells/ml in chemotaxis medium (RPMI1640, 1% BSA, pen/strep). Compounds were four-fold serially diluted in DMSO. Further dilutions were made in chemotaxis medium. Cells were incubated with test compounds for 30 min at 37° C. prior to initiation of the assay (3*10^6 cells/ml). Final DMSO concentration in the assay was 0.2%. Wells of the Transwell plates were filled with 200 μl chemotaxis medium containing 150 ng/ml CCL20 (R&D systems 360-MP). 50 μl of the cell/compound suspension was added to the inserts of the Transwell plates (150,000 cells/insert). The Transwell plates were placed in an incubator at 37° C., 5% CO2 for 3 h. After 3 h, the number of migrated cells was quantified using CellTiter Glo (Promega). Percentage inhibition values were calculated based on the low and high signal obtained with 0.2% DMSO in chemotaxis medium without and with CCL20, respectively. The relative Log IC50 was determined with GraphPad Prism 9 using a four-parameter dose-response model.

A further experiment has as its target T1, human CCR6 (Homo sapiens, UniProt P51684).
T1 sequence (P51684 1-374): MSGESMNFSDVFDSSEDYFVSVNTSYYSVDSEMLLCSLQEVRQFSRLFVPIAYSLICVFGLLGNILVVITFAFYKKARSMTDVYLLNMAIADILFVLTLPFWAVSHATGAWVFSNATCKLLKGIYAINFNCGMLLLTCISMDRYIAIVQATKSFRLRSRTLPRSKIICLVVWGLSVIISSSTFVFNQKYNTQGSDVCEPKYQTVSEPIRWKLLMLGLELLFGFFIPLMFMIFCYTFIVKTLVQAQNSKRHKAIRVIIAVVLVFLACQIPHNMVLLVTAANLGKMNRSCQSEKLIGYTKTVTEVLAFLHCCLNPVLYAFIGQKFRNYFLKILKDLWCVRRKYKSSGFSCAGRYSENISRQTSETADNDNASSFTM
In words: Human CCR6-CRE reporter assay. Conditions: 293FT cells transfected with human CCR6 and CRE-luciferase; Forskolin + CCL20, 5 h; relative Log IC50; read-out: CCR6-CRE reporter (converted). Further details: The second construct contained the open reading frame of human CCR6 in the pUNO1 backbone; host or cells: 293FT cells (transient transfection with TransIT-293). The format is cell-based. The procedure, abridged:
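293FT cells transiently co-transfected with human CCR6 and a CRE-luc2P reporter, used 48 h later. Compounds in medium with 6 μM forskolin and 6 nM CCL20, 0.1% DMSO final, 5 h at 37° C. Luminescence read; relative log IC50 from a four-parameter fit.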

`O=c1[nH]nc2ccc(-c3ccc(S(=O)(=O)N4CCC(Nc5ccc(SC(F)(F)F)cn5)CC4)cc3)cn12` [Example 74, 6-(4-{[4-({5-[(trifluoromethyl)sulfanyl]pyridin-2-yl}amino)piperidin-1-yl]sulfonyl}phenyl)-2H,3H-[1,2,4]triazolo[4,3-a]pyridin-3-one]: the IC50 in the experiment on Human CD4+ T cells was 12.6 nM; at human CCR6, 79.4 nM.
